Structures can show the parent of a compound that is named as a salt.
Experiments:
[1] = system: brain; test: Transcriptional profiling, multi-dosing regimen, naïve mice: brain; assay type: in vivo; settings: for FC: BRAIN_HEMI, 100MMF-vs-Veh
Procedure: (§1) In vivo, DMF is rapidly metabolized to monomethyl fumarate (MMF). […] Animals were exposed to CO2 and whole blood collected via cardiac puncture. Two 100 μl aliquots of whole blood were collected in 1.5 mL microcentrifuge tubes and snap frozen in liquid nitrogen. Peripheral (liver, spleen, kidney and jejunum) and CNS brain (cerebellum, hippocampus, striatum and cortex) tissues were harvested and snap frozen in liquid nitrogen, with special care taken to collect tissues of similar size and from the same location. All samples were stored at -80° C. until RNA extraction was conducted. For RNA preparation, frozen tissues were placed in 2 mL RNAse-free 96-well blocks with 1.5 mL QIAzol Lysis Reagent (QIAgen) and a 3.2 mm stainless steel bead (BioSpec Products, Bartlesville, Okla.). Tissues were disrupted for four cycles of 45 seconds in a Mini-Beadbeater (Biospec Products). RNA was extracted in chloroform and the aqueous phase was mixed with an equal volume of 70% ethanol. Extracted RNA was applied to RNeasy 96 plates and purified by the spin method according to the manufacturer's protocol (RNeasy 96 Universal Tissue Protocol, QIAgen, Hilden Germany). […] Two micrograms of biotin labeled […] probe were hybridized to Affymetrix GeneChip Affymetrix HT_MG-430_PM plate arrays with modified conditions as described in […] et al. Washing and staining of the hybridized arrays were completed as described in the GeneChip Expression analysis technical manual for HT plate arrays using the Genechip® Array Station (Affymetrix, Santa Clara, Calif.) with modifications as described in […] et al. The processed GeneChip® plate arrays were scanned using GeneTitan scanner (Affymetrix, Santa Clara, Calif.). Affymetrix scans were subject to quality control (QC) measures. These tests included a visual inspection of the distribution of raw signal intensities and an assessment of RNA degradation, relative log expression (RLE), and normalized unsealed standard error (NUSE). All sample scans that passed these QC metrics were included in the analysis. All CEL files were subjected to GC-content-based Robust Multi-array Average (GCRMA) normalization (version 2.20.0) (Irizarry R A, et al. Nucleic Acids Res 2003; 31:e15; Li C, et al. […] Stat Appl Genet Mol Biol 2004; 3:Article3). […] Springer Science+Business Media 2005). Changes in gene expression were studied by applying a linear modeling approach to fit gene expression levels according to the defined groups of samples (e.g. DMF-, MMF-, and Vehicle-treated animals) and Bayesian posterior error analysis as implemented by Smyth (Smyth G K. Stat Appl Genet Mol Biol 2004; 3:Article3). The comparisons considered included: DMF-vs-MMF, DMF-vs-Vehicle, and MMF-vs-Vehicle. […] Very few DEGs are observed in blood and tissues derived from the central nervous system (brain, cerebellum, cortex, striatum, and spinal cord).

[2] = system: spleen; test: Transcriptional profiling, multi-dosing regimen, naïve mice: spleen; assay type: in vivo
Procedure: as §1

[3] = Table 13: Naïve, Single Dose (so in the source), 90 mpk MMF-vs-Vehicle, 12 h after last dosing
[4] = SPLEEN, 100MMF-vs-Veh, naïve multidose

SMILES: COC(=O)/C=C/C(=O)O [MMF, monomethyl fumarate]
- FC ([1]; Pofut2 1437845_PM_x_at): −1.98
- FC ([1]; Poldip3 1437837_PM_x_at): −1.74
- FC ([1]; Polr3a 1437525_PM_a_at): −1.76
- FC ([1]; Ppip5k2 1433856_PM_at): −1.57
- FC ([1]; Prkg2 1435162_PM_at): −1.69
- FC ([1]; Prss23 1437671_PM_x_at): −1.74
- FC ([1]; Ptpdc1 1433823_PM_at): −1.59
- FC ([1]; Ptpn2 1438562_PM_a_at): −1.74
- FC ([1]; Rgs19 1434940_PM_x_at): −1.51
- FC ([1]; Rif1 1429490_PM_at): −1.82
- FC ([1]; Rnf14 1437035_PM_x_at): −1.68
- FC ([1]; Rnf157 1434427_PM_a_at): −1.67
- FC ([1]; Sfrs13b 1437168_PM_at): −1.66
- FC ([1]; Slc9a3r1 1438115_PM_a_at): −1.85
- FC ([1]; Slc12a6 1436989_PM_s_at): −1.80
- FC ([1]; Snx16 1438803_PM_s_at): −1.55
- FC ([1]; Sp4 1437508_PM_at): −1.54
- Number of differentially expressed genes identified: Brain Hemi [1, 3]: 280
- FC ([1]; Tchh 1434425_PM_at): −1.64
- FC ([1]; Tmem41b 1428586_PM_at): −1.89
- FC ([1]; Tox3 1436600_PM_at): −1.56
- FC ([1]; Trim9 1434249_PM_s_at): −1.58
- FC ([1]; Ttc14 1437878_PM_s_at): −1.64
- FC ([1]; Tubgcp4 1433659_PM_at): −1.54
- FC ([1]; Uba2 1437278_PM_a_at): −1.50
- FC ([1]; Uba3 1435164_PM_s_at): −1.65
- FC ([1]; Zdhhc20 1434236_PM_at): −1.64
- FC ([1]; Zfp110 1437236_PM_a_at): −1.77
- FC ([1]; Zfp260 1436495_PM_s_at): −1.65
- FC ([1]; Zfp788 1429371_PM_at): −1.65
- FC 4931431B13Rik (1430416_PM_at) [2, 4]: −1.94
- FC 5430404G13Rik (1453540_PM_at) [2, 4]: −1.55
- FC 5730403M16Rik (1434343_PM_at) [2, 4]: 1.51
- FC Ccdc80 (1424187_PM_at) [2, 4]: −1.64
- FC Ccl3 (1419561_PM_at) [2, 4]: −1.82
- FC Ccr3 (1422957_PM_at) [2, 4]: −2.37
- FC Cd300ld (1424832_PM_at) [2, 4]: −1.85
- FC Clec4a2 (1422013_PM_at) [2, 4]: −1.50
- FC Clec4a2 (1425406_PM_at) [2, 4]: −1.64
- FC Clec4a3 (1429954_PM_at) [2, 4]: −1.58
- FC Clec4n (1425951_PM_a_at) [2, 4]: −1.81
- FC Csmd3 (1438272_PM_at) [2, 4]: −1.80
- FC Defb1 (1419491_PM_at) [2, 4]: 1.55
- FC Dmd (1417307_PM_at) [2, 4]: −1.56
- FC Ear3 (1422412_PM_x_at) [2, 4]: −1.73
- FC Emr4 (1424998_PM_at) [2, 4]: −1.75
- FC Fam63a (1438321_PM_x_at) [2, 4]: 1.54
- FC Fcgr1 (1417876_PM_at) [2, 4]: −1.84
- FC Fgfrl1 /// LOC100046239 (1447878_PM_s_at) [2, 4]: 1.53
- FC Gzma (1417898_PM_a_at) [2, 4]: −1.64
- FC Hpgds (1421492_PM_at) [2, 4]: −1.55
- FC Hs6st2 (1450047_PM_at) [2, 4]: −1.75
- FC Iigp1 (1419043_PM_a_at) [2, 4]: −1.72
- FC Lrp4 (1426288_PM_at) [2, 4]: −1.51
- FC Lrrc50 (1421974_PM_at) [2, 4]: 1.53
- FC Niacr1 (1419721_PM_at) [2, 4]: −1.91
- FC Ptplad2 (1450967_PM_at) [2, 4]: −1.55
- FC Rab31 (1431691_PM_a_at) [2, 4]: −1.62
- FC Rnf144b (1425282_PM_at) [2, 4]: −1.71
- FC Stfa2l1 (1442339_PM_at) [2, 4]: −2.07
- FC Stx1a (1437390_PM_x_at) [2, 4]: 1.53
- FC Tmem26 (1434583_PM_at) [2, 4]: −1.67
- FC Ubn2 (1430056_PM_at) [2, 4]: 1.64
- FC Ucp2 (1444566_PM_at) [2, 4]: 1.54
- FC Vnn3 (1420723_PM_at) [2, 4]: −1.59
- FC probe 1429277_PM_at (no gene symbol) [2, 4]: −1.60
- FC probe 1431225_PM_at (no gene symbol) [2, 4]: 1.58
- FC probe 1439831_PM_at (no gene symbol) [2, 4]: −1.51
- FC probe 1442323_PM_at (no gene symbol) [2, 4]: 1.51
- FC probe 1447204_PM_at (no gene symbol) [2, 4]: −1.95
- FC probe 1449653_PM_at (no gene symbol) [2, 4]: −1.57
- FC probe 1457306_PM_at (no gene symbol) [2, 4]: 2.12
- Number of differentially expressed genes identified: Spleen [2, 3]: 42
